Values after ≈ are worked out from the molar mass of the structure shown.
Columns and labels:
Assay type in all cases: physicochemical
[1] = In vitro release of dapivirine from PU rods into liposome dispersions; conditions: 5 mg/g PU rods
Experimental: It is believed that vaginally delivered lipophilic NNRTI's partition into the lipid bilayer of vaginal epithelial cells.^14,21 Therefore, additional release studies were performed using 100 nm liposome dispersions in pH 4.2 and pH 7.6 buffers as biorelevant sink conditions for 1 week. These pH conditions cover the pH range observed vaginally. Liposome dispersions were synthesized by dissolving egg PC in CHCl3 followed by solvent removal under vacuum. The dried egg PC cake was dispersed in either pH 4.2 (25 mM acetate buffer containing 0.02% sodium azide and osmolarity adjusted to 310 mOsm/kg with NaCl) or pH 7.6 (25 mM phosphate buffer containing 0.02% sodium azide and osmolarity adjusted to 310 mOsm/kg with NaCl) followed by extrusion through a 100 nm membrane (LiposoFast™, Avestin, Ottawa, Canada). The concentration of liposome was 10 mg/mL. Prior to conducting the release study, liposome dispersions were characterized for particle size and zeta potential in a Zetasizer (nano ZS90, Malvern Instruments, Malvern Worcestershire, UK). A third sink condition for comparison was 25:75 v/v i-prOH:water. Approximately 0.5 mm length segments of dapivirine loaded (5 mg/g) PU rods were incubated with 0.5 mL of sink solution in 37° C. water bath shaking at 64±2 rpm. Controls used were dapivirine loaded PU rods suspended with pH 4.2 and pH 7.6 buffers without liposomes and blank PU (no dapivirine) segments in liposome dispersions in pH 4.2 and pH 7.6 buffers. Sinks were replaced and quantified for dapivirine content at frequent time points. HPLC quantification of release in sink samples of liposome dispersions was performed after 1:1 dilution with i-prOH to disrupt the dispersion.

[2] = In vitro release of dapivirine from PU rings (SC and MM) in 25:75 i-prOH:water; conditions: for average release rate: rings, two weeks
Experimental: The release profile of dapivirine was measured from PU-SC rods for a month after which the release kinetics from rings was evaluated for two weeks to determine the correlation of drug release rate from rods to that from rings. This may enable use of rods in place of rings for release kinetics evaluation thereby minimizing the scale of materials such as ring materials, quantity of drugs and volume of sink solutions required for release studies in case of monolithic IVRs. About 2 cm length segments were cut from the solid cross-sectional dapivirine loaded PU SC rods. The dimensions (length and diameter) and weight of each segment were recorded. The segments were incubated with 5 mL 25:75 v/v i-prOH:water as the sink condition in 20 mL septa covered vials at 37° C. in a water bath shaker set at 64±2 rpm. The sink was replaced with fresh co-solvent every 24±0.5 h for 30 days. HPLC analyses were performed every 2 to 5 days and the cumulative release was calculated by integrating the area under the curve using Kaleidagraph software (Synergy Software, Reading, Pa.). The release study for each loading was performed on triplicate samples. At the end of 30 days, the segments were wiped dry and the masses and dimensions of the segments were recorded. Similarly, dapivirine release kinetics were measured from rings (20 mg/g SC, 2.5 mg/g SC, 20 mg/g MM and 2.5 mg/g MM) incubated with 50 mL of 25:75 v/v i-prOH:water mixture as sink condition in 125 mL Erlenmeyer flasks with rubber septa […].
At the end of each release study, the swelling ratio was calculated by using the following equation
[formula] • where • Q=swelling ratio • Mi=mass of ring or rod segments before the release study • Mf=mass ring or rod segments after the release study

[3] = Solubility study of dapivirine; conditions: for solubility: 37 °C, aqueous with cosolvent or surfactant or cyclodextrin, thermodynamic from solid; for Time to reach saturation: 37° C.
Experimental: HPLC quantification of dapivirine was conducted as follows. The HPLC system (Agilent 1050) consisted of a solvent module, quaternary pump module and a variable wavelength UV detector. For analysis of release and solubility study samples, an alkyl amide column (Supelcosil™ ABZ+Plus 3 μm, 3.3 cm×4.6 mm ID, Supelco, Bellefonte, Pa.) was used with a gradient of 50:50 acetonitrile and water to 100% acetonitrile (both containing 0.1% v/v trifluoroacetic acid, TFA) in 4 minutes at a flow rate of 1 mL/min. The retention time of dapivirine was 1.1 min. A linear calibration curve of dapivirine was obtained in the range of 1-100 ng/injection (r^2>0.99) at the detection wavelength of 286 nm. The quantification limit of HPLC for dapivirine was 0.65 ng/injection (corresponds to 2 μl of a 1 μM solution) with a signal to noise ratio greater than 10. A longer method was developed for the stability study; a C-18 column (Hypersil BDS-C18, 10 cm×4.0 mm ID, […], Thermo Electron Corporation, Waltham, Mass.) was used with acetonitrile (A) and water (B) both containing 0.1% v/v TFA as eluent at a flow rate of 1 mL/min. A gradient of 30:70 A:B to 70:30 A:B was applied in 7 minutes with retention time of dapivirine at 5.7 minutes. The HPLC method was modified for LC/MS analysis: the flow rate was reduced to 0.5 mL/min; a gradient of 30:70 A:B to 70:30 A:B in 14 minutes; the TFA concentration in the eluents was 0.05% v/v and the retention time for dapivirine was 10.5 minutes.
Solubility studies of dapivirine were conducted to determine the appropriate sink conditions for the in vitro release studies. Dapivirine is a hydrophobic molecule; therefore a co-solvent system that can provide sink conditions (solubility greater than 3 times the maximum concentration achieved in the release medium) during dapivirine release study was needed. Since a co-solvent system consisting of 50:50 v/v i-prOH:water has been utilized previously for long-term release studies of dapivirine from silicone rings^11,18, the solubility of dapivirine was determined in 50:50 and 25:75 v/v i-prOH:water solutions. Additionally, solubility of dapivirine in liposome dispersions was evaluated in an attempt to utilize them as biorelevant sink conditions.^14,21 The liposome dispersions of 10 mg/mL in 25 mM pH 4.2 acetate buffer (osmolarity adjusted to 310 mOsm/kg with NaCl) and 25 mM pH 7.6 phosphate buffer (osmolarity adjusted to 310 mOsm/kg with NaCl) were utilized. (See in vitro release studies in Example 4 for preparation of liposome dispersions.) Dapivirine (10 mg) was dispersed in test solutions (2 mL) and shaken at 37° C. at 200 rpm. Aliquots of 200 μL were withdrawn at 24 h, 48 h and 72 h. At each time point, the aliquots were centrifuged immediately for 2 minutes at 16000 g, 100 μL of the supernatant was diluted 1:10 using 100% isopropanol and quantified by HPLC. The solubility was determined by a calibration curve generated from known concentrations of dapivirine solutions in i-prOH.

With `Cc1cc(C)c(Nc2ccnc(Nc3ccc(C#N)cc3)n2)c(C)c1` [dapivirine, 4-[[4-[(2,4,6-trimethylphenyl)amino]pyrimidin-2-yl]amino]benzonitrile] the “cumulative release over time” value ([1]; liposome dispersions, one week) was “linear relationship with time”, the “dapivirine release in buffer controls” value ([1]; pH 4.2 and pH 7.6 buffers without liposomes) was “below the detection limit” and the “release kinetics relative to 25:75 i-prOH:water sink (slopes of linear fits)” value ([1]; pH 4.2 liposome dispersion) was 22 times. The “release kinetics relative to 25:75 i-prOH:water sink (slopes of linear fits)” value ([1]; pH 7.6 liposome dispersion) was 1.5 times, the “average flux from rings (SC) higher than from rods (SC)” value ([2]; 2.5 mg/g SC) was 18% and the “average flux from rings (SC) higher than from rods (SC)” value ([2]; 20 mg/g SC) was 12%. For the same compound, the “release kinetics of SC rings vs MM rings” value ([2]; p>0.05, unpaired two tailed t-test) was “no significant difference”, the “release rate (order)” value ([2]; rings SC and MM, 25:75 i-prOH:water, 37° C.) was “zero order release rate” and the average release rate ([2]; 2.5 mg/g dapivirine loading, 25:75 i-prOH:water, 37° C.) was 64 ± 1 µg/day. It also gave an average release rate ([2]; 20 mg/g dapivirine loading, 25:75 i-prOH:water, 37° C.) of 473 ± 36 µg/day, a solubility ([3]; 10 mg/mL liposome dispersion in pH 4.2 acetate buffer, 10 mg/mL pH 4.2 liposome dispersion) of 844 µM (≈ 278 µg/mL) and a solubility ([3]; 10 mg/mL liposome dispersion in pH 7.6 phosphate buffer, 10 mg/mL pH 7.6 liposome dispersion) of 165 µM (≈ 54.4 µg/mL). For the same compound, the “Time to reach saturation” value ([3]; 10 mg/mL pH 4.2 liposome dispersion) was 48 h, the “Time to reach saturation” value ([3]; 10 mg/mL pH 7.6 liposome dispersion) was 48 h and the “Time to reach saturation” value ([3]; 25:75 i-prOH:water) was 48 h. The dapivirine solubility ([3]; 25:75 v/v i-prOH:water solution) was 93 μM/L, the solubility ([3]; 25:75 v/v i-prOH:water, 25:75 i-prOH:water) was 93 µM (≈ 30.6 µg/mL) and the “Time to reach saturation” value ([3]; 50:50 i-prOH:water) was 24 h. It also gave a solubility ([3]; 50:50 v/v i-prOH:water, 50:50 i-prOH:water) of 3310 µM (≈ 1090 µg/mL).

Source: patent publication US20110045076A1, “LINEAR ORDER RELEASE POLYMER” (priority 2008, published 2011)
